Results reported in patent publication US20260053931A1, “MDM2 TARGETING PROTACS” (THE WISTAR INSTITUTE OF ANATOMY AND BIOLOGY, priority 2023, published 2026).

Assays:
[1] = tested on: Cal27; assay: Cell death of other cancer cell lines: Cal27; type: cell-based; conditions: Homo sapiens, CAL-27; Cal27, Head & Neck
Protocol: (§1) The PROTACs prepared herein were tested for their use in other cancer cell lines to determine activity in multiple different types of cancer.

[2] = molecular target: T1, Mdm2 (Homo sapiens, UniProt Q00987); assay: In-Cell Western, mut p53 MDA-MB-231 cell line; type: cell-based; design: endogenous in cells; host or cells: MCF7 (A8); MDA-MB-231 (A9); conditions: mutant p53 MDA-MB-231
Protocol: Cells were seeded at decreasing cell number from 15K cells to 2K cells. The Mdm2 primary antibody was tested at 1:200 and 1:300 dilution. The secondary antibody conjugated to IRDye800CW was used with 1:800 dilution, and CellTag 700 Stain was used at 1:1000 dilution as manufacture recommended. The linearity of cell number versus signal was generated with Prism. The signal over background ratio was also calculated.
The potential PROTACs were evaluated in the wt p53 MCF7 cell line and in the mut p53 MDA-MB-231 cell line. Importantly these were compared to MD-224, which was recently reported to potently degrade Mdm2 in RS4; 11 leukemia cells (Li et al., 2019). Assay linearity was performed confirming a strong 4-fold signal to noise in the assay. A series of bi-functional molecules were then treated and evaluated for protein level in the assay over time from 2 h-48 h. […] In this wt p53 cancer cell line the stabilization of p53 (FIG. 15B), and subsequent p53-mediated transcriptional upregulation of Mdm2 make it difficult to observe degradation. […] These compounds were evaluated in the mutant p53 cancer cells. […] In this cell line, it takes approximately 16-24 h to detect the degradation. […] The difference in the molecules is that MD-224 utilizes a CRBN recruiting ligand.

[3] = tested on: SUP-T1; assay: Cell death of other cancer cell lines: SUP-T1; type: cell-based; conditions: Homo sapiens; SUP-T1, T-ALL
Protocol: as §1

[4] = molecular target: T1, Mdm2; assay: Western blot of TNBC cells treated with PROTAC; type: cell-based; design: endogenous in cells; MDA-MB-231 (A9)
Excerpt: A. Chemical structure of MDM2-PROTAC. B-C. MDM2:p53 and MDM2:VHL-HIF1α peptide binding inhibition determined by homogeneous time-resolved fluorescence (HTRF, triplicate, mean±SEM, B) and surface plasmon resonance (SPR, triplicate, mean±SD, C. Binding assays by the indicated compounds. Graphical data is representative of 3 separate experiments. D. AlphaScreen of ternary complex using GST-MDM2 and HIS-VHL; mean±SD. E-F. Western blot analysis for the proteins indicated following a dose-titration (E, 16 hr) and time course (F, 6 μM) with the PROTAC or vehicle control (DMSO, −) in MDA-MB-231 (p53-mutant) and MDA-MB-436 (p53-delete) cells. G-K. Western blot analysis for the proteins indicated following treatment with the MDM2-PROTAC and/or the neddylation activating enzyme inhibitor MLN4924 G.
PROTACs work by forming a ternary complex consisting of the target protein, the PROTAC, and the recruited E3 ubiquitin ligase-E2 complex, causing ubiquitination of the target protein, marking it for 26S proteasome-mediated degradation (Nalawansha & Crews, 2020). FIG. 19D confirms that the PROTAC forms a […] complex. […] Similarly, when the proteasome was inhibited with MG132, MDM2 protein levels were maintained despite YX-02-030 exposure (FIG. 19H). Therefore, YX-02-030 targets MDM2 protein for 26S proteasome-mediated degradation in TNBC cells and this requires the ubiquitin cascade.

[5] = tested on: MDA-MB-231 and MDA-MB-436 cells; assay: Mammosphere formation in 3D culture; type: cell-based, human; conditions: each concentration tested, 72 hrs, compared to MDM2 inhibitors and vehicle
Protocol: FIGS. 21A-21E show the apoptosis induction of p53-inactivated TNBC cells in 2D and 3D cultures by the MDM2-PROTAC YX-02-030. A-B. Colony formation assays (A. Triplicate, 12 days) and mammosphere formation (B. Triplicate 72 hrs) of MDA-MB-231 and MDA-MB-436 cells in the presence of the indicated compounds or DMSO control (−); representative pictures shown. C-E. Formed mammospheres of MDA-MB-231 and MDA-MB-436 cells were treated with the compounds indicated or DMSO control (−), and area (C. n=10 mammospheres, relative to pre-treatment area, 72 hr), real-time imaging (IncuCyte) and quantification of Caspase-3/7 activity (D. n=4-5 wells/compound), and survival/ATP assays (E. Quadruplicate, 72 hr) were performed; representative images shown; scale bar 300 m. Mean±SEM (A-C and E). For A, *P<0.0001 and **P<0.0001, comparing 1 M and 2 M PROTAC, respectively, to control compounds and DMSO vehicle control. For B, *P<0.0046, **P<0.0001, and ***P<0.0001, comparing 0.5 M, 1 M, and 2 M PROTAC, respectively, to control compounds and DMSO vehicle control. For C, *P<0.0001 and **P<0.0001, comparing 2 M and 4 M/6 M PROTAC, respectively, to control compounds and DMSO vehicle control. […]
These were then evaluated in 3D culture as to when the YX-02-030 was effective at preventing TNBC cell mammosphere formation and eliminating already formed mammospheres. […]

[6] = tested on: SCC-25; assay: Cell death of other cancer cell lines: SCC-25; type: cell-based; conditions: Homo sapiens; SCC-25, Head & Neck
Protocol: as §1

T1 sequence (Q00987 whole entry): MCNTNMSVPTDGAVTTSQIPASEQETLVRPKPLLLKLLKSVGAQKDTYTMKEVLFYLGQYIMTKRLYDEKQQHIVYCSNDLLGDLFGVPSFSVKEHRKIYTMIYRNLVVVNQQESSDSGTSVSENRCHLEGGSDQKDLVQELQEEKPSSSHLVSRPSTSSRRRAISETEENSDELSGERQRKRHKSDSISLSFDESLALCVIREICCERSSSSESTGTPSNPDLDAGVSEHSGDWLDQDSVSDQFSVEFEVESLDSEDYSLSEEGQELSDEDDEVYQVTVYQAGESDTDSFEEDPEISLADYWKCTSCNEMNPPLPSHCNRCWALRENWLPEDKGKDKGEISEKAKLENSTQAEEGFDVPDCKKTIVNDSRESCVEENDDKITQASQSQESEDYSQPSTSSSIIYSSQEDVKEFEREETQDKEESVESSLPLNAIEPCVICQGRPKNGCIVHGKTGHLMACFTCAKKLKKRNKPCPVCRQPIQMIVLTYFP

| Compound | IC50 [1] [µM] | Mdm2 degradation [2] | IC50 [3] [µM] | MDM2 protein level ([4]; MDA-MB-231 (mutated p53) and MDA-MB-436 (deleted p53), dose titration 16 hr, time course 6 μM) | VHL protein level ([4]; Western blot) | mammosphere formation [5] | IC50 [6] [µM] |
| --- | --- | --- | --- | --- | --- | --- | --- |
| CCOc1cc(C(C)(C)C)ccc1C1=N[C@](C)(c2ccc(Cl)cc2)[C@](C)(c2ccc(Cl)cc2)N1C(=O)N1CCN(CC(=O)NCCOCCOCCOCC(=O)N[C@H](C(=O)N2C[C@H](O)C[C@H]2C(=O)NCc2ccc(-c3scnc3C)cc2)C(C)(C)C)CC1 (racemic) [YX-02-030] | 2.3 | degrade Mdm2 | 5.7 | loss of MDM2 protein | not degraded | significantly fewer mammospheres formed | 3.1 |
| CCOc1cc(C(C)(C)C)ccc1C1=N[C@](C)(c2ccc(Cl)cc2)[C@](C)(c2ccc(Cl)cc2)N1C(=O)N1CCN(CC(=O)NCCCNC(=O)COc2ccc3c(c2)CN(C(=O)[C@H](NC(=O)[C@@H](C)NC)C(C)(C)C)[C@@H](C(=O)N[C@H]2CCCc4ccccc42)C3)CC1 [YX-02-228, (R)-7-(2-((3-(2-(4-((4R,5S)-2-(4-(tert-butyl)-2-ethoxyphenyl)-4,5-bis(4-chlorophenyl)-4,5-dimethyl-4,5-dihydro-1H-imidazole-1-carbonyl)piperazin-1-yl)acetamido)propyl)amino)-2-oxoethoxy)-2-((R)-3,3-dimethyl-2-((R)-2-(methylamino)propanamido)butanoyl)-N-((S)-1,2,3,4-tetrahydronaphthalen-1-yl)-1,2,3,4-tetrahydroisoquinoline-3-carboxamide] |  | degrade Mdm2 | 6 |  |  |  |  |
